Experimental data: patent publication US11638427B2, “Methods and compositions for altering secondary metabolites in plants” (Impello Biosciences, Inc, priority 2020, dated 2023)

Experiments:
Penicillium spp. = test: Mold growth on jasmonate-infused plates, mold isolated from orange; assay type: cell-based; details: various concentrations in plates
Method: (§1) MDJ (TCI, CAS No.: 24851-98-7) and CJ were infused into potato dextrose agar (PDA, VWR Cat No.: 90003-494) petri dishes (100×15 mm VWR, Cat No: 25384-094) at concentrations ranging from 1 mM, 4.25 mM, and 10 mM. Each treatment was prepared using a technical grade stock solution of pure chemical (CJ or MDJ) diluted with TWEEN®-20 (VWR, CAS No.: […]). Culturable oyster mushroom and seedling mold served to create fungal mycelial plugs using a sterile 1 mL pipette tip (Eppendorf, Cat No.: 022491458) held upside down. The tips were used to make circle excisions (i.e., fungal plugs) from a mycelial mat grown on PDA with no biochemical infusions. Fungal pugs were then transferred to PDA infused with varying concentrations of CJ or MDJ, and control plates (no CJ or MDJ infusion) to monitor fungal growth at room temperature over time.
Based on the above results in Cannabis spp., additional fungi from various crops was sampled and tested. Plates comprising various concentrations of MDJ or MJ were prepared as described above.

CBDRx Cherry variety = test: MeJA vs MDJ weekly foliar spray, terpene analysis; assay type: in vivo, Cannabis spp.; details: 4.25 mM or 7.5 mM weekly foliar spray
Method: (§2) To directly compare the efficacy of MeJA and MDJ, MeJA and MDJ were applied as a foliar spray once per week at either 4.25 mM or 7.5 mM concentrations to two high-CBD cannabis varieties. Clones from CBDRx Cherry variety and Sunrise Genetics' F2 variety were transplanted into 1-gallon pots with Red's soil and put into vegetative light cycle (18L/6D) on 4/12/21. All plants had two weeks in vegetative light cycle and were moved to flowering light cycle (12L/12D) on 4/26/21 for six weeks. Foliar applications started in week three of growth, [at flower initiation?]. Plants were then moved to a flowering light cycle. Each treatment group comprises three plants, including the control. Throughout the growing period, all plants were watered with JACK'S NUTRIENTS®. Plants were harvested on 6/7/21.
(§3) Treatments: Each concentration was prepared from a one molar stock solution with TWEEN®-20. Sprays were prepared weekly and diluted with RO water. Each plant was sprayed till dripping, each receiving approximately 75-100 ml.

[1] = test system: Sunrise Genetics' F2 variety; test: MeJA vs MDJ weekly foliar spray, terpene analysis; assay type: in vivo, Cannabis spp.; details: for eucalyptol / guaiol / α-bisabolol: 4.25 mM or 7.5 mM MDJ, or 7.5 mM MeJA; for D-Limonene / Linalool / cis-B-ocimene: all applications (4.25 mM and 7.5 mM)
Method: as §2, §3

[2] = test system: high-CBD hemp varieties Stormy Daniels and BaOX; test: Field foliar applications of MDJ, MeJA and CJ on high-CBD hemp, cannabinoid analysis; assay type: in vivo, Cannabis spp.; details: 7.5 mM foliar, four applications every 14 days in flowering
Method: However, MDJ is not known to have any significant bioactivity in planta and is not an endogenously produced phytohormone in cannabis, so it was unknown whether MDJ would afford the same functionality as MeJA. Similarly, CJ has likewise been relatively under-investigated as a plant elicitor despite being a decarboxylation product of Jasmonic Acid. Here, the effect of MDJ and CJ were analyzed (in addition to MeJA) in order to determine any difference in the effect of these treatments on field-grown high-CBD hemp varieties.
A hemp field experiment was conducted during the flowering phase of plant development in a private research field located in North Carolina. Sixty (60) plants from two distinct plant variety populations, Stormy Daniels and BaOX were selected for the trial. Each group of 60 plants was randomly divided into three groups of 20 plants and labeled accordingly to indicate the treatment group (T1, T2, T3). All plants were cultivated identically and subjected to approximately the same environmental conditions. Control, untreated plants were taken from the same field. Plants were treated according to treatment group, and each treatment group was subjected to four (4) applications of its respective treatment, with the first treatments applied on what was considered to be the first day of the flowering phase and repeated then again every successive 14 days up until just prior to harvest. Treatments were as follows: Control group=Control, Treatment 1=MDJ, Treatment 2=MeJA, Treatment 3=CJ.
All treatments were prepared in a stock (concentrated, non-aqueous) form by Impello Biosciences in their lab in Loveland, Colo. and labelled respectively prior to the start of the experiment. All treatments were prepared at a high stock concentration that allowed dilution by the applicator with 2 liters of water to a final 7.5 mM concentration of active ingredient (i.e., MeJA, MDJ, or CJ) for each treatment; 15-mL centrifuge tubes were used as preparation and storage vessels for each of the treatments. Preparation of the stock solutions ensured that the applicator could store the solutions prior to use at 4° C. to minimize degradation and allow for dilution immediately prior to use. In the stock containers, 2 mL of TWEEN®-20 was added to each respective elicitor compound as an emulsifier in order to reach a final oil-in-water emulsion once diluted with a concentration of 7.5 mM active ingredient and 0.1% surfactant (i.e., TWEEN®-20) v/v.
Plants were grown to maturity and 5 plants from each treatment and control group were sampled on Sep. 23, 2019. Care was taken to ensure samples were similar in appearance and spatial location between plants to minimize unintended variance in sample quality. The apical cola for each plant was harvested, and specifically, the top 3″ of the main cola. Yield data was not collected in this study, but no obvious differences in plant size or appearance were noted. Samples were submitted for chemical analysis (Avazyme, Inc, NC).
All models were linear models fit with Group (treatment) as the independent variable and the response variable was the corresponding compound. Data was filtered and comparison between treatments were conducted using the emmeans package and Tukey HSD for post-hoc corrections. Statistical significance was defined by a level of significance of p<0.05 in the Tukey test. Total cannabinoids included CBN, Δ9-THC, CBDV, CBG, CBD, CBC, CBDA, CBGA, THCA, and THCV. Total THC and total CBD were calculated by accounting for the additional weight of the carboxyl group in the acidic forms and adding those to the neutral/non-acidic forms.

grey mold = test: Fungal plug growth on jasmonate-infused PDA plates; assay type: cell-based, Rhizopus stolonifera; details: for grey mold growth: 1 mM, 4.25 mM, 10 mM in PDA, 72 hours post inoculation
Method: as §1
A grey mold was also tested (FIGS. 10A-10D). All plates were generated and inoculated as described above and incubated at room temperature under identical conditions. Shown in […] are plates of grey mold 72 hours post fungal inoculation. Control plates are shown on the top row, followed by concentrations of MeJA (left) and MDJ (right) in duplicate at […] (FIG. 10A), 4.25 mM (FIG. 10B), and 10 mM (FIG. 10C). […] While it was initially hypothesized that the grey mod was a species of Botrytis, subsequent sequence analysis identified the mold as Rhizopus stolonifera.

[3] = 4.25 mM or 7.5 mM weekly foliar spray

Row | SMILES | growth of mold isolated from orange (Penicillium spp.) | camphene (CBDRx Cherry variety) | total terpene content (CBDRx Cherry variety) | α-pinene (CBDRx Cherry variety) | β-pinene (CBDRx Cherry variety) | eucalyptol [1] | guaiol [1] | α-bisabolol [1] | D-Limonene [1] | Linalool [1] | cis-B-ocimene [1] | CBDA increase relative to the control group [2] [%] | THCA increase relative to the control group [2] [%] | Total CBD increase relative to the control group [2] [%] | Total Cannabinoids increase relative to the control group [2] [%] | Total THC increase relative to the control group [2] [%] | grey mold growth (grey mold) | also measured
1 | CCCCCC1C(=O)CCC1CC(=O)OC (stereo not shown) [MDJ, methyl dihydrojasmonate] | effective at preventing the growth | significantly lowered | significantly lowered | significantly lowered | significantly lowered | Significant increases | Significant increases | Significant increases | significantly decreased | significantly increased | significantly decreased | 16.53 | 19.69 | 16.62 | 16.38 | 19.61 | inhibited | β-myrcene content (CBDRx Cherry variety): significantly lowered; camphene [1, 3]: significantly lowered; p-pinene [1, 3]: significantly lowered; total terpene content [1, 3]: significantly lowered; α-pinene [1, 3]: significantly lowered; β-myrcene content [1, 3]: significantly lowered; efficacy at inhibiting grey mold, MDJ compared with MeJA (grey mold; at the 1 mM concentration, 72 hours): more effective
2 | CC/C=C\C[C@H]1C(=O)CC[C@@H]1CC(=O)OC [MeJA, Methyl Jasmonate] | effective at preventing the growth | neither concentration of MeJA significantly altered | neither concentration of MeJA significantly altered | neither concentration of MeJA significantly altered | neither concentration of MeJA significantly altered | Significant increases | Significant increases | Significant increases | significantly decreased | significantly increased | significantly decreased | 5.36 | 5.36 | 5.75 | 5.64 | 6.06 | inhibited | β-myrcene, α-pinene, camphene, β-pinene and total terpene content ([1]; only with the higher concentration of 7.5 mM): significant reduction; efficacy at inhibiting grey mold, MeJA compared with MDJ (grey mold; at 4.25 mM and 10 mM concentrations, 72 hours): more effective
